Measured values published in article PMC3897169 (MedChemComm, 2013).

The compounds below were run against T1, L3MBTL3 (Homo sapiens, UniProt Q96JM7) (assay: AlphaScreen methylated histone peptide competition assay). Conditions: compared with UNC2533; 12 and 13 after incubation time of 30 minutes.
T1 sequence (Q96JM7 225-555 limits assumed): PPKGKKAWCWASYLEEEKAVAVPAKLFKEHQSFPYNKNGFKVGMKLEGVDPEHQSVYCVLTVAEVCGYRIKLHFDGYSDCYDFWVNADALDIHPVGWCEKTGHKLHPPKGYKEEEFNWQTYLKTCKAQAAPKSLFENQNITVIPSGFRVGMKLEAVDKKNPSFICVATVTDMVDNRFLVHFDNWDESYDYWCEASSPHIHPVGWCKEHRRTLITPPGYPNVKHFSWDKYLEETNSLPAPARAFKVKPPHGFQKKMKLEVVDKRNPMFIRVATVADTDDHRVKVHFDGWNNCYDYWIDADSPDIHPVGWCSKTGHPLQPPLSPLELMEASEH
Type: binding
With `N#CC1CCN(CCc2ccc(N3CCC(N4CCCC4)CC3)cc2)C1` (stereo not shown) [compound 12] the “Fold drop in L3MBTL3 activity (AlphaScreen) relative to UNC2533” value was 5 fold. `c1cc(N2CCC(N3CCCCC3)CC2)ccc1CCN1CCCC1` [compound 2] was tested, and the “Fold drop in L3MBTL3 activity (AlphaScreen) relative to UNC2533” value was 9 fold. In the case of `c1cc(N2CCC(N3CCCC3)CC2)ccc1N1CCC(N2CCCC2)CC1` [compound 10], the “Fold drop in L3MBTL3 activity (AlphaScreen) relative to UNC2533” value is reported as “about 5 fold”. `O=C(CCc1ccc(N2CCC(N3CCCC3)CC2)cc1)N1CCCC1` [compound 8] was tested, and the “Fold drop in L3MBTL3 activity (AlphaScreen) relative to UNC2533” value was “more than 30 fold”. `O=C1CCN(CCc2ccc(N3CCC(N4CCCC4)CC3)cc2)C1` [compound 13] was tested, and the “Fold drop in L3MBTL3 activity (AlphaScreen) relative to UNC2533” value was 5 fold. `c1cc(CN2CCCC2)ccc1CCN1CCCC1` [compound 7] was tested, and the “Fold drop in L3MBTL3 activity (AlphaScreen) relative to UNC2533” value was 20 fold.

What follows are compounds tested against T1, L3MBTL3 (assay: Isothermal titration calorimetry). Conditions: compared with UNC2533.
Type: binding
With `c1cc(N2CCC(N3CCCCC3)CC2)ccc1CCN1CCCC1` [compound 2] the “Fold loss in L3MBTL3 activity by ITC relative to UNC2533” value was 7 fold.
